Consider 15 compounds from patent US12371428B2 (Exelixis, Inc., priority 2019, dated 2025).

What all share (type): cell-based
Test [1] has as its target AXL (phospho-AXL, Gas6-stimulated A-172 glioblastoma cells) (Homo sapiens (Human), UniProt P30530). Put plainly: AXL autophosphorylation ELISA in A-172 cells (Example E). As to conditions: cellular activity; AXL autophosphorylation ELISA in A-172 cells; read-out: Axl IC50. The essentials: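 Phospho-AXL was measured by ELISA in lysates of Gas6-stimulated A-172 cells, starved 24 h in serum-free medium and exposed 1 h to an 8-point compound dilution at 0.3% DMSO.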

Test [2] addresses Met (phospho-Met, HGF-stimulated PC-3 prostate cancer cells) (Homo sapiens (Human), UniProt P08581). Put plainly: Met autophosphorylation ELISA in PC-3 cells (Example F). As to conditions: cellular activity; Met autophosphorylation ELISA in PC-3 cells; read-out: c-Met IC50. The essentials: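 Sandwich ELISA for phospho-Met (panTyr) in PC-3 lysates. Cells starved 3 h serum-free, compound 1 h (8-pt curve, 0.3% DMSO), HGF 100 ng/mL 10 min. 100% = HGF + DMSO; 0% = HGF + reference inhibitor. IC50 by 4-parameter fit.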

Test [3] concerns the target KDR (phospho-KDR, VEGF165-stimulated HUVEC cells) (Homo sapiens (Human), UniProt P35968). Put plainly: KDR autophosphorylation ELISA in HUVEC cells (Example G). As to conditions: cellular activity; KDR autophosphorylation ELISA in HUVEC cells. The essentials:
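Inhibition of VEGF165-driven KDR autophosphorylation is measured in primary human umbilical vein endothelial cells after 24 h serum deprivation. Compound preincubation lasts 1 h before a 5-minute challenge with 100 ng/mL ligand, and phosphorylated receptor is then measured by ELISA in the lysates.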

Test [4] addresses Mer (phospho-Mer, MERTK-transfected 293A cells) (Homo sapiens (Human), UniProt Q12866). Put plainly: Mer autophosphorylation ELISA in transient transfected 293A cells (Example H). As to conditions: cellular activity; Mer autophosphorylation ELISA in transient transfected 293A cells. The essentials: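 IC50 from 4-parameter logistic fit of phospho-Mer levels, quantified by ELISA against a phospho-Mer standard in lysates of MERTK-transfected 293A cells. Cells exposed 1 h to 8-point serial dilutions, serum-free, 0.3% DMSO; controls: DMSO (100%) and reference inhibitor (0%).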
For orientation: ELISA stands for enzyme-linked immunosorbent assay.

Chain of Mer (phospho-Mer, MERTK-transfected 293A cells) (Q12866 21-999): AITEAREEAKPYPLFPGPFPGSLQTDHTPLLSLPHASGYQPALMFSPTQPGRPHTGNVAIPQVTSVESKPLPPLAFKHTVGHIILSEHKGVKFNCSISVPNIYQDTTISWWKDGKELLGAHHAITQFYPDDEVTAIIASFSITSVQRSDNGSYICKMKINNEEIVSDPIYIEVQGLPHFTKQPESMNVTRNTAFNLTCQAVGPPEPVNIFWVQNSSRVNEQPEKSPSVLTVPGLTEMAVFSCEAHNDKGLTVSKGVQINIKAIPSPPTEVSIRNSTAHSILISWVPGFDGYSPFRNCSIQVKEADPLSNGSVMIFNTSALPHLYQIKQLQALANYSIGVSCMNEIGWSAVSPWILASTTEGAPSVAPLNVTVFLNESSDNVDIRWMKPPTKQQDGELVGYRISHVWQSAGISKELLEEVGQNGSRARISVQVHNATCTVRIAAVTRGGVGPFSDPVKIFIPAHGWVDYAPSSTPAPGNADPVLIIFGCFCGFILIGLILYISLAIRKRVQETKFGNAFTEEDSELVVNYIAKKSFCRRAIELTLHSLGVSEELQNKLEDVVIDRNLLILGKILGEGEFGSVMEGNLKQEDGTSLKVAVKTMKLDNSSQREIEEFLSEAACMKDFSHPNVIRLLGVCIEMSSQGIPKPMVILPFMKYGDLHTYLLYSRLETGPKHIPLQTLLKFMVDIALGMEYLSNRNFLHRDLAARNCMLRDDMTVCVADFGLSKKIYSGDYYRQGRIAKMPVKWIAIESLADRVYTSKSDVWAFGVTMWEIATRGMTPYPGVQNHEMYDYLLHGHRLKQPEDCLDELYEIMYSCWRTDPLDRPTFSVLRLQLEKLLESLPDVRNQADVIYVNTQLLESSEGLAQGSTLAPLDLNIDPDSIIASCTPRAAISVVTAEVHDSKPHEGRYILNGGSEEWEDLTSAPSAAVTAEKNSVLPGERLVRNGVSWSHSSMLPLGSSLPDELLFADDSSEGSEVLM
Chain of AXL (phospho-AXL, Gas6-stimulated A-172 glioblastoma cells) (P30530 26-894): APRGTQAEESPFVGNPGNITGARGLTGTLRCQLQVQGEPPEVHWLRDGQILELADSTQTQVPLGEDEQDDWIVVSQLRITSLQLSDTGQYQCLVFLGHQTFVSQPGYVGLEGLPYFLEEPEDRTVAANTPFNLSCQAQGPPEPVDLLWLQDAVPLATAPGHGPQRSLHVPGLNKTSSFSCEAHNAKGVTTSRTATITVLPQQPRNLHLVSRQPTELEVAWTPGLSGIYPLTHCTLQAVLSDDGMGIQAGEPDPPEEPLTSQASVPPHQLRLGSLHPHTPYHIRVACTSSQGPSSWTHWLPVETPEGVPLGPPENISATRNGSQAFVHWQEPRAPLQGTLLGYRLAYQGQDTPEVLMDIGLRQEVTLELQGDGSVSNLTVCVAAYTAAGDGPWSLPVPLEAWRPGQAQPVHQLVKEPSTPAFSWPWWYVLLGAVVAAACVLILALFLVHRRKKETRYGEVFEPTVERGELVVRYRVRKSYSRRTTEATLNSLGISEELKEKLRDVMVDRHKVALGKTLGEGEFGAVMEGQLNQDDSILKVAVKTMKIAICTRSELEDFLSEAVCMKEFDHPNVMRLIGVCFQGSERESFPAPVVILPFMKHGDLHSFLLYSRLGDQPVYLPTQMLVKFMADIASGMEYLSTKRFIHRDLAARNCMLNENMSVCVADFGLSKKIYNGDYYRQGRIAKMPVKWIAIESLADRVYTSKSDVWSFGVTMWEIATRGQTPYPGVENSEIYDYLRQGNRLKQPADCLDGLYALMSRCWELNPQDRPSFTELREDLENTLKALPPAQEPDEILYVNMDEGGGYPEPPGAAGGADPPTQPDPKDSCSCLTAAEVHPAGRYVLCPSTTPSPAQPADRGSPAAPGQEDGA
Chain of KDR (phospho-KDR, VEGF165-stimulated HUVEC cells) (P35968 20-1356): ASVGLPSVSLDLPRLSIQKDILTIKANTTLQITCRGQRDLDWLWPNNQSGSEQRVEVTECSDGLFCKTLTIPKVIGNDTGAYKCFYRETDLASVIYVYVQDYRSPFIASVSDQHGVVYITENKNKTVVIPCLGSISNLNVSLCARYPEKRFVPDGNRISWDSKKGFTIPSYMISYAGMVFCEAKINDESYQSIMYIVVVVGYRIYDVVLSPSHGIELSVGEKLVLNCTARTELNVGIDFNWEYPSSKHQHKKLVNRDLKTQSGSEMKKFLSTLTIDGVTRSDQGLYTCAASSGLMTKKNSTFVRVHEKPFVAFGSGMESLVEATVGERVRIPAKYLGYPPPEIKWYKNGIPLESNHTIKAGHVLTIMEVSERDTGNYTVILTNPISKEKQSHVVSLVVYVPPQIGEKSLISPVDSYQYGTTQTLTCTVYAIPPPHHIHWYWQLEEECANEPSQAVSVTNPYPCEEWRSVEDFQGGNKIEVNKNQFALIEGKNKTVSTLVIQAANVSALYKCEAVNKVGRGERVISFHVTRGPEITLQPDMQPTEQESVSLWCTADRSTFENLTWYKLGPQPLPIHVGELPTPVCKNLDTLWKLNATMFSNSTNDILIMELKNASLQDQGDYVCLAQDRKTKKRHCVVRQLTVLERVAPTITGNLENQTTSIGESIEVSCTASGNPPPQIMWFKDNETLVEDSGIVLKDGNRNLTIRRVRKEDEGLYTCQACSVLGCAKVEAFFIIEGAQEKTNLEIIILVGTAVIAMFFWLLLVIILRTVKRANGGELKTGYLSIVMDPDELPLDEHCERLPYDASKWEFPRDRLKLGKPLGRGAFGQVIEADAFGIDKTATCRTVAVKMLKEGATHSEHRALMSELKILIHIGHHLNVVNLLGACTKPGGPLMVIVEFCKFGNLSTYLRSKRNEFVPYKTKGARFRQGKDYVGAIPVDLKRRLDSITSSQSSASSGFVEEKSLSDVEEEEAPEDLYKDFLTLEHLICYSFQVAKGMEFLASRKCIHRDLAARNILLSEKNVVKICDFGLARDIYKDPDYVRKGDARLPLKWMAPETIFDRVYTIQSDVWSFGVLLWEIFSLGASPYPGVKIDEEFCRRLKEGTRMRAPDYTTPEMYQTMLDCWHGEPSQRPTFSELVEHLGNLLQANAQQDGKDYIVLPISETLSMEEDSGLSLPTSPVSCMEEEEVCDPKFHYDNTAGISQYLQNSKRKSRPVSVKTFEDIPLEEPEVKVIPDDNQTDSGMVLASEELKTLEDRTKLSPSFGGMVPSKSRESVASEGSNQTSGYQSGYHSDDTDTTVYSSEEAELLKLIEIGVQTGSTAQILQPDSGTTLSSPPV
Chain of Met (phospho-Met, HGF-stimulated PC-3 prostate cancer cells) (P08581 25-1390): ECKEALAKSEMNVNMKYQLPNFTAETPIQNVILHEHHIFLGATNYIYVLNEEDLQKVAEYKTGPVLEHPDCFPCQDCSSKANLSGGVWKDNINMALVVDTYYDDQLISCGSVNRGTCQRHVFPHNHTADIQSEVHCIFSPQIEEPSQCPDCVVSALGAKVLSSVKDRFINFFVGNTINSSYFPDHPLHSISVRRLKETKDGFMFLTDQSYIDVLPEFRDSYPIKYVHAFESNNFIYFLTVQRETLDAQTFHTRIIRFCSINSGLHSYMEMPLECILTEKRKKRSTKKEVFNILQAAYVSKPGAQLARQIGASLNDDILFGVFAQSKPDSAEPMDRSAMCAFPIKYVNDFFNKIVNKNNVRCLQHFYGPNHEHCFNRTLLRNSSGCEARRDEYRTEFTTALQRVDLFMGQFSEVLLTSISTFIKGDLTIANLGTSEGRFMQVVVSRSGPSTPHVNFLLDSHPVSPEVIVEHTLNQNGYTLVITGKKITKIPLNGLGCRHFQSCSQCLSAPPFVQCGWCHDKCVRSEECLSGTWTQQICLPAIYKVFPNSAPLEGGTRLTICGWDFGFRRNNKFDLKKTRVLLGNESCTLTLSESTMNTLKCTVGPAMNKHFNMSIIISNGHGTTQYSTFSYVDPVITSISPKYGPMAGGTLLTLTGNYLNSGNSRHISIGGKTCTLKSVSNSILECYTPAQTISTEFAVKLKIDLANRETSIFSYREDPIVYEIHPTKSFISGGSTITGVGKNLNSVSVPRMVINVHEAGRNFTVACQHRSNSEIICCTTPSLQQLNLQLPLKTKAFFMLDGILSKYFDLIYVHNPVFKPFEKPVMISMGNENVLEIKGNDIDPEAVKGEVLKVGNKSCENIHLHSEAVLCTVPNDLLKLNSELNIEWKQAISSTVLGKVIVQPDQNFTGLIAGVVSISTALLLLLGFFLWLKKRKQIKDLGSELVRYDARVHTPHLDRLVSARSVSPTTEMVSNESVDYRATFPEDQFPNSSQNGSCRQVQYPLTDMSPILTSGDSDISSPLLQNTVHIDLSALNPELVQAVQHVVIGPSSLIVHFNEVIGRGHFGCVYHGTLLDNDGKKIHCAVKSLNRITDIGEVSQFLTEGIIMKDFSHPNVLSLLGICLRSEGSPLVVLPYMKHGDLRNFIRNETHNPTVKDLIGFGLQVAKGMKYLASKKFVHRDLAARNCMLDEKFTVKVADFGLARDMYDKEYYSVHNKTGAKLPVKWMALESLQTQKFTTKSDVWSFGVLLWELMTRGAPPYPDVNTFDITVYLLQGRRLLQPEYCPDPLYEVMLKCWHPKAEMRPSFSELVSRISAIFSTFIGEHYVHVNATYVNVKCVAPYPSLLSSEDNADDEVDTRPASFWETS

As for `COc1cnc2c(Oc3c(F)cc(NC(=O)c4c(C)nc(C)c(-c5ccc(F)cc5C)c4O)cc3F)ccnc2c1` [Compound 767, N-[3,5-difluoro-4-[(7-methoxy-1,5-naphthyridin-4-yl)oxy]phenyl]-5-(4-fluoro-2-methylphenyl)-4-hydroxy-2,6-dimethylpyridine-3-carboxamide], the IC50 in test [1], in test [2], in test [3] and in test [4] was < 100 nM in each case.
With `COc1cc2nccc(Oc3cc(F)c(NC(=O)c4c(C)n(C)c(C)c(-c5ccc(F)cc5)c4=O)cc3F)c2nc1OC` [Compound 769, N-[4-[(6,7-dimethoxy-1,5-naphthyridin-4-yl)oxy]-2,5-difluorophenyl]-5-(4-fluorophenyl)-1,2,6-trimethyl-4-oxopyridine-3-carboxamide], the concentration for half-maximal inhibition (IC50) (in general, the concentration needed to halve the response being measured) in test [1] is < 100 nM; in test [2], < 100 nM; in test [3], 100 to 300 nM; in test [4], < 100 nM.
Turning to `COc1cnc2c(Oc3cc(F)c(NC(=O)c4c(C)nc(C)c(-c5ccc(F)cc5C)c4O)cc3Cl)ccnc2c1` [Compound 770, N-[5-chloro-2-fluoro-4-[(7-methoxy-1,5-naphthyridin-4-yl)oxy]phenyl]-5-(4-fluoro-2-methylphenyl)-4-hydroxy-2,6-dimethylpyridine-3-carboxamide], the IC50 in test [1], in test [2], in test [3] and in test [4] was < 100 nM throughout.
As to `COc1cnc2c(Oc3ccc(NC(=O)c4c(C)n(C)c(C)c(-c5ccc(F)cc5C)c4=O)cc3F)ccnc2c1` [Compound 771, N-[3-fluoro-4-[(7-methoxy-1,5-naphthyridin-4-yl)oxy]phenyl]-5-(4-fluoro-2-methylphenyl)-1,2,6-trimethyl-4-oxopyridine-3-carboxamide], the half-inhibitory concentration (IC50) is < 100 nM in test [1], < 100 nM in test [2], > 300 nM in test [3] and < 100 nM in test [4].
Turning to `COc1cc2nccc(Oc3cc(F)c(NC(=O)c4c(C)n(C)c(C)c(-c5ccc(F)cc5C)c4=O)cc3F)c2nc1OC` [Compound 772, N-[4-[(6,7-dimethoxy-1,5-naphthyridin-4-yl)oxy]-2,5-difluorophenyl]-5-(4-fluoro-2-methylphenyl)-1,2,6-trimethyl-4-oxopyridine-3-carboxamide], the half-maximal inhibitory concentration (IC50) is < 100 nM in test [1], < 100 nM in test [2], 100 to 300 nM in test [3] and < 100 nM in test [4].
`COc1cc2nccc(Oc3ccc(NC(=O)c4c(C)n(C)c(C)c(-c5ccc(F)cc5C)c4=O)cc3F)c2nc1OC` [Compound 774, N-[4-[(6,7-dimethoxy-1,5-naphthyridin-4-yl)oxy]-3-fluorophenyl]-5-(4-fluoro-2-methylphenyl)-1,2,6-trimethyl-4-oxopyridine-3-carboxamide]: the IC50 in test [1] was < 100 nM; in test [2] it was < 100 nM; in test [3], 100 to 300 nM; in test [4], < 100 nM.
`COc1cc2nccc(Oc3ccc(NC(=O)c4c5n(c(C)c(-c6ccc(F)cc6C)c4=O)CCOC5)cc3F)c2nc1OC` [Compound 782, N-[4-[(6,7-dimethoxy-1,5-naphthyridin-4-yl)oxy]-3-fluorophenyl]-7-(4-fluoro-2-methylphenyl)-6-methyl-8-oxo-3,4-dihydro-1H-pyrido[2,1-c][1,4]oxazine-9-carboxamide]: the IC50 in test [1] was < 100 nM; in test [2], < 100 nM; in test [3] it was > 300 nM; in test [4] it was < 100 nM.
`COc1cnc2c(Oc3ccc(NC(=O)c4c5n(c(C)c(-c6ccc(F)cc6)c4=O)CCOC5)cc3F)ccnc2c1` [Compound 783, N-[3-fluoro-4-[(7-methoxy-1,5-naphthyridin-4-yl)oxy]phenyl]-7-(4-fluorophenyl)-6-methyl-8-oxo-3,4-dihydro-1H-pyrido[2,1-c][1,4]oxazine-9-carboxamide]: the 50% inhibitory concentration (IC50) in test [1] is < 100 nM; in test [2], < 100 nM; in test [3] it was > 300 nM; in test [4], < 100 nM.
For `COc1cnc2c(Oc3ccc(NC(=O)c4c5n(c(C)c(-c6ccc(F)cc6C)c4=O)CCOC5)cc3F)ccnc2c1` [Compound 784, N-[3-fluoro-4-[(7-methoxy-1,5-naphthyridin-4-yl)oxy]phenyl]-7-(4-fluoro-2-methylphenyl)-6-methyl-8-oxo-3,4-dihydro-1H-pyrido[2,1-c][1,4]oxazine-9-carboxamide], the IC50 in test [1] is < 100 nM; in test [2] it was < 100 nM; in test [3] it was > 300 nM; in test [4], < 100 nM.
Regarding `COCCc1nc(C)c(-c2ccc(F)cc2)c(O)c1C(=O)Nc1ccc(Oc2ccnc3cc(OC)c(OC)nc23)c(F)c1` [Compound 785, N-[4-[(6,7-dimethoxy-1,5-naphthyridin-4-yl)oxy]-3-fluorophenyl]-5-(4-fluorophenyl)-4-hydroxy-2-(2-methoxyethyl)-6-methylpyridine-3-carboxamide], the half-inhibitory concentration (IC50) in test [1], in test [2], in test [3] and in test [4] was < 100 nM in each case.
Consider `COc1cc(F)ccc1-c1cnc(C)c(C(=O)Nc2ccc(Oc3ccnc4cc(OC)c(OC)nc34)c(F)c2)c1O` [Compound 792, N-[4-[(6,7-dimethoxy-1,5-naphthyridin-4-yl)oxy]-3-fluorophenyl]-5-(4-fluoro-2-methoxyphenyl)-4-hydroxy-2-methylpyridine-3-carboxamide], for which the half-inhibitory concentration (IC50) in test [1], in test [2], in test [3] and in test [4] was < 100 nM in each case.
Regarding `COc1cnc2c(Oc3ccc(NC(=O)c4c(C)ncc(-c5ccc(F)cc5OC)c4O)cc3F)ccnc2c1` [Compound 793, N-[3-fluoro-4-[(7-methoxy-1,5-naphthyridin-4-yl)oxy]phenyl]-5-(4-fluoro-2-methoxyphenyl)-4-hydroxy-2-methylpyridine-3-carboxamide], the IC50 in test [1], in test [2], in test [3] and in test [4] was < 100 nM throughout.
On to `COc1cc2nccc(Oc3ccc(NC(=O)c4c(C)ncc(-c5ccc(F)c(C)c5)c4O)cc3F)c2nc1OC` [Compound 794, N-[4-[(6,7-dimethoxy-1,5-naphthyridin-4-yl)oxy]-3-fluorophenyl]-5-(4-fluoro-3-methylphenyl)-4-hydroxy-2-methylpyridine-3-carboxamide], for which the IC50 in test [1], in test [2], in test [3] and in test [4] was < 100 nM throughout.
On to `COc1cnc2c(Oc3ccc(NC(=O)c4c(C)ncc(-c5ccc(F)c(C)c5)c4O)cc3F)ccnc2c1` [Compound 795, N-[3-fluoro-4-[(7-methoxy-1,5-naphthyridin-4-yl)oxy]phenyl]-5-(4-fluoro-3-methylphenyl)-4-hydroxy-2-methylpyridine-3-carboxamide], for which the 50% inhibitory concentration (IC50) in test [1], in test [2], in test [3] and in test [4] was < 100 nM throughout.
`COc1cc2nccc(Oc3ccc(NC(=O)c4c(C)ncc(-c5ccc(F)c(F)c5)c4O)cc3F)c2nc1OC` [Compound 796, 5-(3,4-difluorophenyl)-N-[4-[(6,7-dimethoxy-1,5-naphthyridin-4-yl)oxy]-3-fluorophenyl]-4-hydroxy-2-methylpyridine-3-carboxamide]: the IC50 in test [1], in test [2], in test [3] and in test [4] was < 100 nM in each case.
